Experiments:
CDK4-CYCLIND1 = CDK4-CYCLIND1 (Homo sapiens, UniProt P11802); test: Microfluidic LabChip inhibition assay, CDK4-CYCLIND1; assay type: biochemical; conditions: Table 2; ATP 200 μM, 25° C.; read-out: CDK4 IC50
Experimental: (§1) The reaction was terminated by the addition of EDTA. The plates were analyzed using a Caliper LabChip 3000.
(§2) Additional inhibition assays were performed as described above.

CDK6-CYCLIND3 = CDK6-CYCLIND3 (Homo sapiens, UniProt Q00534); test: Microfluidic LabChip inhibition assay, CDK6-CYCLIND3; assay type: biochemical; conditions: Table 2; ATP 300 μM, 25° C.; read-out: CDK6 IC50
Experimental: as §1, §2

Sequence of CDK4-CYCLIND1 (P11802 whole entry): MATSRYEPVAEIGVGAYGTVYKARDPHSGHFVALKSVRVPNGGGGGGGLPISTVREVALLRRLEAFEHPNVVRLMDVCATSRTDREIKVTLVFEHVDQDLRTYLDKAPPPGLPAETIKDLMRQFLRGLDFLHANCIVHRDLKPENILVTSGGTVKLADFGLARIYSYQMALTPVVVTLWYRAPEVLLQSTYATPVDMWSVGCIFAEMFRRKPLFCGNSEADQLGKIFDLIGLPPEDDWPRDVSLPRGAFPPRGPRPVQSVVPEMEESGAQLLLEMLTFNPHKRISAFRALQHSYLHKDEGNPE
Sequence of CDK4-CYCLIND1 (P24385 whole entry partner): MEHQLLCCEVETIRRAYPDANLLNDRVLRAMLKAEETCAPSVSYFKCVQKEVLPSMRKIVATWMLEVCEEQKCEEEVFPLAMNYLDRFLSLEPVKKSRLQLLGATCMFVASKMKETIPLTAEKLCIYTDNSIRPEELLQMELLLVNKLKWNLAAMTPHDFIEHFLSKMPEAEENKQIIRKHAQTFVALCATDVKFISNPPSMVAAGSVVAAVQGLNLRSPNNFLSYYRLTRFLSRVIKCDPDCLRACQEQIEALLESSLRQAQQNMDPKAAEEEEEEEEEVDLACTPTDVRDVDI
Sequence of CDK6-CYCLIND3 (Q00534 whole entry): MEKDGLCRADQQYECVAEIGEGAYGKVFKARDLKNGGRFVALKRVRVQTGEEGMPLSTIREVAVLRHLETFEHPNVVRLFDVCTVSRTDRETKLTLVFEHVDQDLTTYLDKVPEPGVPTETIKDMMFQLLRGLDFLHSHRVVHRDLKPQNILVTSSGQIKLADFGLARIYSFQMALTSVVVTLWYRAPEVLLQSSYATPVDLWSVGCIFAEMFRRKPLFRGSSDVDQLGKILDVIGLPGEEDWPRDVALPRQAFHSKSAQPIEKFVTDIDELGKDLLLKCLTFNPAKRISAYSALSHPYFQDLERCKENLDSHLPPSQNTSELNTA
Sequence of CDK6-CYCLIND3 (P30281 whole entry partner): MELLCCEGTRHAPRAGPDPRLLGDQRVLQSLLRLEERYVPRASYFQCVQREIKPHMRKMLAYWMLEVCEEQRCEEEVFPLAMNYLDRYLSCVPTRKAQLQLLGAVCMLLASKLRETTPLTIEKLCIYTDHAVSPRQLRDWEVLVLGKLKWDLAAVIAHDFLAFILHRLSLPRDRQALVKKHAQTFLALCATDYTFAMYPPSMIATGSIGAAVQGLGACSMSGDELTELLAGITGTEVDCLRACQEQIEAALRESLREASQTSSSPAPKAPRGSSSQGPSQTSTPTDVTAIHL

| Compound | IC50 (CDK4-CYCLIND1) | IC50 (CDK6-CYCLIND3) |
| --- | --- | --- |
| N#Cc1cc2cnc(Nc3ccc(OCCN4CCCC4)c(F)c3)nc2n(C2CCCC2)c1=O [Compound B30] | 7.62 nM | 24.2 nM |
| N#Cc1cc2cnc(Nc3ccc(N4CC5(CNC5)C4)cc3)nc2n(C2CCCC2)c1=O [Compound B31, 2-((4-(2,6-diazaspiro[3.3]heptan-2-yl)phenyl)amino)-8-cyclopentyl-7-oxo-7,8-dihydropyrido[2,3-d]pyrimidine-6-carbonitrile] | 2.41 nM | 8.29 nM |
| N#Cc1cc2cnc(Nc3ccc(N4CC5(CNC5)C4)cn3)nc2n(C2CCCC2)c1=O [Compound B32, 2-((5-(2,6-diazaspiro[3.3]heptan-2-yl)pyridin-2-yl)amino)-8-cyclopentyl-7-oxo-7,8-dihydropyrido[2,3-d]pyrimidine-6-carbonitrile] | 21.1 nM | 33.4 nM |
| CN(C)[C@H]1CCN(C(=O)c2ccc(Nc3ncc4cc(C#N)c(=O)n(C5CCCC5)c4n3)cc2)C1 [Compound B35, (S)-8-cyclopentyl-2-((4-(3-(dimethylamino)pyrrolidine-1-carbonyl)phenyl)amino)-7-oxo-7,8-dihydropyrido[2,3-d]pyrimidine-6-carbonitrile] | 3.84 nM | 22.3 nM |
| CN(C)[C@H]1CCN(C(=O)c2ccc(Nc3ncc4cc(C#N)c(=O)n(C5CCCC5)c4n3)cc2F)C1 [Compound B36, (S)-8-cyclopentyl-2-((4-(3-(dimethylamino)pyrrolidine-1-carbonyl)-3-fluorophenyl)amino)-7-oxo-7,8-dihydropyrido[2,3-d]pyrimidine-6-carbonitrile] | 13.2 nM | 73.1 nM |
| N#Cc1cc2cnc(Nc3ccc(N4CCC(N5CCOCC5)CC4)cc3)nc2n(C2CCCC2)c1=O [Compound B38, 8-cyclopentyl-2-((4-(4-morpholinopiperidin-1-yl)phenyl)amino)-7-oxo-7,8-dihydropyrido[2,3-d]pyrimidine-6-carbonitrile] | 9.81 nM | 29.8 nM |
| N#Cc1cc2cnc(Nc3ccc(N4CCC(N5CCOCC5)CC4)cn3)nc2n(C2CCCC2)c1=O [Compound B39, 8-cyclopentyl-2-((5-(4-morpholinopiperidin-1-yl)pyridin-2-yl)amino)-7-oxo-7,8-dihydropyrido[2,3-d]pyrimidine-6-carbonitrile] | 9.27 nM | 27.9 nM |
| N#Cc1cc2cnc(Nc3ccc(N4CCC(N5CCOCC5)CC4)c(F)c3)nc2n(C2CCCC2)c1=O [Compound B41, 8-cyclopentyl-2-((3-fluoro-4-(4-morpholinopiperidin-1-yl)phenyl)amino)-7-oxo-7,8-dihydropyrido[2,3-d]pyrimidine-6-carbonitrile] | 7.88 nM | 27.9 nM |

Continued by falling IC50 (CDK4-CYCLIND1), values first:

| IC50 (CDK4-CYCLIND1) | IC50 (CDK6-CYCLIND3) | Compound |
| --- | --- | --- |
| 46.3 nM | 93.6 nM | CCN1CCN(Cc2ccc(Nc3ncc4cc(C#N)c(=O)n(C5CCCC5)c4n3)nc2)CC1 [Compound B37, 8-cyclopentyl-2-((5-((4-ethylpiperazin-1-yl)methyl)pyridin-2-yl)amino)-7-oxo-7,8-dihydropyrido[2,3-d]pyrimidine-6-carbonitrile] |
| 11.3 nM | 30.8 nM | N#Cc1cc2cnc(Nc3ccc(N4CCC(N5CCOCC5)CC4)nc3)nc2n(C2CCCC2)c1=O [Compound B40, 8-cyclopentyl-2-((6-(4-morpholinopiperidin-1-yl)pyridin-3-yl)amino)-7-oxo-7,8-dihydropyrido[2,3-d]pyrimidine-6-carbonitrile] |
| 5.97 nM | 14.4 nM | N#Cc1cc2cnc(Nc3ccc(N4CC5(CNC5)C4)nc3)nc2n(C2CCCC2)c1=O [Compound B33, 2-((6-(2,6-diazaspiro[3.3]heptan-2-yl)pyridin-3-yl)amino)-8-cyclopentyl-7-oxo-7,8-dihydropyrido[2,3-d]pyrimidine-6-carbonitrile] |
| 1.21 nM | 3.89 nM | N#Cc1cc2cnc(Nc3ccc(N4CC5(CNC5)C4)c(F)c3)nc2n(C2CCCC2)c1=O [Compound B34, 8-cyclopentyl-2-((3-fluoro-4-(2,6-diazaspiro[3.3]heptan-2-yl)phenyl)amino)-7-oxo-7,8-dihydropyrido[2,3-d]pyrimidine-6-carbonitrile] |
